Measurements published in US20240270786A1, “STEROID COMPOUNDS” (Epirium Bio Inc., priority 2022, published 2024).
Values joined by “and” are separate entries in the source; they are usually repeats but may differ in a detail not shown here. Equal entries are not always repeated.

Assays:
[1] = system: PGC-1α expression in C2C12 cells; experiment: In vitro PGC-1α expression in C2C12 cells (cell ELISA); type: cell-based; conditions: 5000 cells/well, OD @ 650 nm, DMSO control = 100
Protocol: Culture conditions: DMEM containing 25 mM glucose with 10% FBS supplementation; grown at 37° C. and 5% CO2.
Drugs: (+)-Epicatechin, AICAR (direct activator of AMPK).
Assay Conditions: C2C12 cells were cultured in DMEM supplemented in 10% FBS upto 80% confluence. The cells were further trypsinized and seeded into a 96 well plate at a density of 5000 cells/well (well volume—100 μL) (Day 0). Following attachment, the cells were allowed to reach 80-90% confluence in the plate (typically 48 hours post seeding) and further differentiated using DMEM+2% Horse Serum (200 μL/well). The media was changed every day or at least every alternate day for 5 days to allow myoblasts to differentiate into myotubes. On day 7 (post seeding), the cells were treated with standards and test compounds for PGC-1 α assay.
PGC-1α assay: For the detection of PGC-1a, the cells were incubated with 0.5 μg/ml primary antibody (Merck, WH0010891M3) in PBS-T containing 5% BSA at 4° C. overnight. The cells were then washed three times with PBS-T for 5 minutes and incubated with 1:1000 dilution secondary antibody (Anti-rabbit IgG, HRP-linked Antibody, Cell Signaling) in PBS-T with 1% BSA for 1 hour at RT. Cells were washed three times with PBS-T for 5 minutes The cells were incubated with 100 μl TMB substrate solution for 30 minutes and the reaction was stopped with 100 μl of 2N H2SO4. […] (For plate optical density calculations, a background correction was taken at 540 nm). The final PGC-1a activation % is average of activation of 6 replicates.

PGC-1α = experiment: In vivo PGC-1α expression in liver of LPS-treated mice (ELISA); set-up: species or system C57BL/6 mice; conditions: for PGC-1α levels: C57BL/6 mice; for PGC-1α level (%): Control = 100
Protocol: C57BL/6 mice were procured from Vivo Bio Tech Ltd. Male mice were used for the study within an age range of 7 to 8 weeks. Body weight for these mice ranged from 20 g to 25 g. Animals were housed in a group of 6 in individually ventilated cages with temperature of 22±3° C., a relative humidity of 50 to 60%. The bottom of the cages was layered with sterilized corn cob. Animals were provided with gamma irradiated feed and autoclaved drinking water ad-libitum. The IVCs were maintained at an environment controlled (Centrally Air-Conditioned) room at a temperature of 22±3° C., a relative humidity of 50 to 60%, light intensity of 250-300 lux and a 12 hour light-dark cycle and noise intensity of <85 db.
Method of Preparation: LPS was dosed at 3 mg/kg in a dose volume of 10 ml/kg. For this, 0.3 mg/ml of LPS solution (Micronized suspension) was prepared. Butter paper was placed on analytical balance, tarred and LPS was placed on butter paper and its weight was noted down. LPS was transferred to 15 ml falcon tube. Then required amount of normal saline was added to it to make it 0.3 mg/ml. The solution was vortexed properly for 5 minutes and placed on ice. LPS solution was vortexed every time before aspiration and injection.
LPS was dosed at 3 mg/kg. Each test compound was dosed at 10 mg/kg, 2 hour and 15 min post LPS administration.
0.5% CMC was used as a vehicle with a dose volume of 10 ml/kg. An IP route was used for LPS, and a PO route was used for each test compound. Animals were sacrified 24 hours post LPS dosing, and plasma were collected. PGC-1α level was measured in liver samples, and other tissues were stored for future analysis. PGC-1α level was checked using ELISA kit—CUSABIO Mouse PPARGC1A ELISA kit.
Protocol: One day before start of the experiment C57BL/6 Mice (Male, 6-7-week-old) were randomized on the basis of their body weight and were divided into groups. All the cages were assigned the respective group name. Animals inside each cage were marked on the base of the tails with permanent marker to distinguish each animal. Mice were fasted overnight. Next day morning animals were dosed with test item. Group 1 (Control) and Group 2 (LPS) Animals were dosed with vehicle (0.5% CMC). Test items were prepared in 0.5% CMC by trituration in mortar and pestle and addition of CMC drop by drop. 2 hour post test item/vehicle dosing animals were administered with LPS through IP route at 3 mg/kg of body weight. Group 1 (Control) animals were administered with saline. 0.25 hour post LPS administration, animals were again dosed with test item/vehicle. Post dosing, animals were returned to their respective cages and kept until termination of the study. No feed was offered to any group. Animals were provided with water. 24 hour post LPS administration, blood was collected from each animal under influence of mild isoflurane anesthesia through retro-orbital technique. Animals were sacrificed by CO2 asphyxiation technique. Post-termination, animals were dissected and vital organs, liver, brain, skeleton muscle were collected in Eppendorf tubes and flash frozen in liquid nitrogen. Serum was collected from whole blood by centrifuging it at 4° C. at 10,000 RPM and for 10 minutes. (Blood was left for 2 hour for coagulation before centrifugation) After completion of the experiment, all collected samples were stored at −80° C. until analysis.
Assay Methods/Protocol: The mortar was chilled with liquid nitrogen and then the small tissue pieces were grinded in the presence of liquid nitrogen to a fine powder. Immediately after grinding, transferred small amount of tissue powder to a 1.5 ml micro centrifuge tube containing 1.0 ml lysis buffer (RIPA buffer+Protease inhibitor). The samples were then incubated on ice for 2 hours. The samples were vortexed every 15 minutes. The samples were then centrifuged at 13000×g for 15 minutes at 2-8° C. After centrifugation the supernatant was removed carefully and pellet was discarded. […]

[2] = Pharmacokinetics: quantitative determination of compounds in mice plasma; type: in vivo, C57BL/6 Mice; conditions: 10 mg/kg PO single dose, vehicle 10% NMP
Protocol: C57BL/6 Mice, Age 7-9 weeks, body weight range 20-25 g were used. The mice were fasted overnight. Mice were dosed once a day for a single day at 10 mg/kg, 10 mg/kg. 6 time-points were used for whole blood. 10% NMP was used as a vehicle. 9 animals were used per treatment, with three groups of three animals each. Group 1 had time points at 15 and 60 minutes, Group 2 had time points at 30 and 120 minutes, and Group 3 had time points at 90 and 240 minutes. An Oral (PO) route was used. Plasma and brain samples were collected (brain sample collected at terminal time point). Plasma was collected through the centrifugation of whole blood at 10,000 rpm for 10 minutes at 4° C. Samples were stored at −80° C. until processing.
1.00 mg/mL in 100% MeOH PP vials (prepared at RT yellow light) at 2-8° C. were used as stock solution. 12.22-50000 ng/mL using 80% MeOH PP vials (prepared at RT yellow light) at 2-8° C. were used as working solution. 0.98-4000 ng/mL (prepared at RT yellow light) was used for the curve range. For Compounds 26, 40, and 50, 1.00 mg/mL of Compound 53 in 100% methanol Ria vials (Prepared at RT yellow light) was used as IS stock solution, and 80 ng/mL of Compound 53 in 80% methanol (Prepared at RT yellow light) was used as IS working solution. For Compound 36, 1.00 mg/mL of Compound 47 in 100% methanol Ria vials (Prepared at RT yellow light) was used as IS stock solution, and 80 ng/mL of Compound 47 in 80% methanol (Prepared at RT yellow light) was used as IS working solution. A linear, 1/×2 fit type was used. The injection volume was 10 μL for Compounds 26 and 36, and 5 μL for Compounds 40 and 50. Mobile Phase A was 0.1% Formic Acid in water at room temperature. Mobile Phase B was 100% methanol at room temperature. R0 wash solution was 80% methanol at room temperature. R3 wash solution was IPA/MeOH/ACN/water (1:1:1:1) at room temperature. The column was Agilent Eclipse 50*2.1 mm 1.8 μm and the instrument was Shimadzu LC-40 UPLC and AB Sciez 6500+ with LCMS002.
Using a pipette, 25 μL of each sample were aliquoted (calibration curve sample, QC samples and blank matrix) to labeled 1.5 ml eppendorf. Using a pipette, 5.0 μL of IS of conc. 80 ng (Cocktail IS) was aliquoted to each standards and samples except Blank. All tubes were mixed on a multi-tube vortex for approximately 30 seconds. 50 μL of 10 mM Sodium bi-carbonate were added. 1 ml of tert-butyl methyl ether (TBME) was added. All tubes were mixed on a multi-tube vortex for approximately 5 minutes then centrifuged for 10 min at 5,000 rpm for Compounds 26 and 36 and at 10,000 rpm for Compounds 40 and 50, 4° C. The sample was kept in methanol containing dry ice for few seconds to freeze the Aqueous layer (flash freeze method). The upper organic layer was poured from the frozen tubes into the labeled 12×75-mm rial vials and evaporated to dryness under nitrogen using Liquid Evaporator (30° C., ˜15 psi, ˜10 mins). 200 μl of reconstitution solution (0.1% Formic Acid: MeOH (20:80 v/v) were added into each tube. Samples were Vortexed for 30 seconds then transferred to amber glass injection vials for injection.
After test item administration, blood samples were collected from individual animals in previously labeled Heparinised blood collection tubes. Blood samples were collected from retro orbital plexus. The time points for collection of blood samples from all the animals are; 0.25, 0.5, 1, 2 and 4 hr. The collected samples were subjected to centrifugation @ 10,000 rpm for 10 minutes at 40° C. for separation of plasma. Thereafter, plasma samples were collected in previously labeled plasma tubes. These were stored at −80° C. until analysis.

[3] = LPS 3 mg/Kg IP, test compound 10 mg/kg PO BID, liver, 24 hours post LPS
[4] = LPS 0.25 + 0.5 + 1 mg/kg, test compound 10 mg/kg

| T½ [2] | AUC(0-inf) ([2]; C57BL/6, mouse) | AUC(0-t) ([2]; C57BL/6, mouse) | Cmax ([2]; C57BL/6, mouse) | Tmax ([2]; C57BL/6, mouse) | Compound | % Activity (PGC-1α expression) ([1]; 1 mM) | PGC-1α levels (PGC-1α; [3]) | PGC-1α level (%) (PGC-1α; [3]) | PGC-1α level (PGC-1α; [4]) | PGC-1α level (%) (PGC-1α; [4]) | % Activity (PGC-1α expression) ([1]; 0.001 nM) |
| --- | --- | --- | --- | --- | --- | --- | --- | --- | --- | --- | --- |
| – | – | – | – | – | NC(=O)c1ncn([C@@H]2O[C@H](CO)[C@@H](O)[C@H]2O)c1N [AICAR, 5-aminoimidazole-4-carboxamide-1-β-D-ribofuranoside] | 148% and 140% and 130% and 128% | – | – | – | – | – |
| 25.4 min | 2540 ng·h/mL | 2450 ng·h/mL | 2900 ng/mL | 15 min | CN(C)C(=O)[C@H]1CCC2C3CCC4=CC(=O)N(C)CC[C@]4(C)C3[C@@H](O)C[C@@]21C (stereo partly drawn) [Compound 50, (5aR,6S,7aS)-6-hydroxy-N,N,3,5a,7a-pentamethyl-2-oxo-2,3,4,5,5a,5b,6,7,7a,8,9,10,10a,10b,11,12-hexadecahydrocyclopenta[5,6]naphtho[1,2-d]azepine-8-carboxamide] | – | 38684 pg/mL and 24206 pg/mL | 110% and 80% | 2632 pg/mL | 40% | – |
| – | – | – | – | – | Oc1cc(O)c2c(c1)O[C@H](c1ccc(O)c(O)c1)[C@H](O)C2 [Epicatechin, (+)-Epicatechin, reference compound] | – | 33330 pg/mL and 31729 pg/mL and 21967 pg/mL | 63% and 90% and 72% | 3247 pg/mL | 49% | 129% and 123% and 120% and 122% and 125% |
